Measurements as given in patent US12077503B2, “Substituted cyclic amides and their use as herbicides” (FMC CORPORATION, priority 2015, dated 2024).

Tests used:
Assay type in all cases: in vivo
Kochia (Kochia scoparia) [1] = assay: Test A preemergence; settings: Bassia scoparia, pre-emergence, 240 h, 0 to 100 scale where 0 is no effect and 100 is complete control, read-out: Kochia plant response rating; for pest or weed control at 31 g/ha: 31 g ai/ha, Preemergence; for pest or weed control at 125 g/ha: 125 g ai/ha, preemergence, visual injury rating, approximately 10 d
Procedure, shortened: (§1)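 Each rating is a visual injury score from 0 to 100 given about 10 d after treatment, judged against untreated controls kept alongside in the greenhouse. In loam soil–sand blend, seeds got a preemergence directed soil spray, while postemergence plants were 2 to 10 cm tall at spraying.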

[2] = system: barnyardgrass (Echinochloa crus-galli); assay: Test A preemergence; settings: Echinochloa crus-galli, pre-emergence, 240 h, 0 to 100 scale where 0 is no effect and 100 is complete control, read-out: Barnyardgrass plant response rating; for pest or weed control at 31 g/ha: 31 g ai/ha, Preemergence; for pest or weed control at 125 g/ha: 125 g ai/ha, preemergence, visual injury rating, approximately 10 d
Procedure, shortened: as §1

[3] = system: giant foxtail (Setaria faberii); assay: Test A preemergence; settings: Setaria faberi, pre-emergence, 240 h, 0 to 100 scale where 0 is no effect and 100 is complete control, read-out: Foxtail, Giant plant response rating; for pest or weed control at 31 g/ha: 31 g ai/ha, Preemergence; for pest or weed control at 125 g/ha: 125 g ai/ha, preemergence, visual injury rating, approximately 10 d
Procedure, shortened: as §1

[4] = system: pigweed (Amaranthus retroflexus); assay: Test A preemergence; settings: Amaranthus retroflexus, pre-emergence, 240 h, 0 to 100 scale where 0 is no effect and 100 is complete control, read-out: Pigweed plant response rating; for pest or weed control at 31 g/ha: 31 g ai/ha, Preemergence; for pest or weed control at 125 g/ha: 125 g ai/ha, preemergence, visual injury rating, approximately 10 d
[5] = system: ragweed (common ragweed, Ambrosia elatior); assay: Test A preemergence; settings: Ambrosia artemisiifolia, pre-emergence, 240 h, 0 to 100 scale where 0 is no effect and 100 is complete control, read-out: Ragweed plant response rating; for pest or weed control at 31 g/ha: 31 g ai/ha, Preemergence; for pest or weed control at 125 g/ha: 125 g ai/ha, preemergence, visual injury rating, approximately 10 d
Procedure, shortened: as §1

[6] = system: ryegrass, Italian (Italian ryegrass, Lolium multiflorum); assay: Test A preemergence; settings: Lolium multiflorum, pre-emergence, 240 h, 0 to 100 scale where 0 is no effect and 100 is complete control, read-out: Ryegrass, Italian plant response rating; for pest or weed control at 31 g/ha: 31 g ai/ha, Preemergence; for pest or weed control at 125 g/ha: 125 g ai/ha, preemergence, visual injury rating, approximately 10 d
Procedure, shortened: as §1

[7] = system: Galium (catchweed bedstraw, Galium aparine); assay: Test A postemergence; settings: Galium, post-emergence, 240 h, Postemergence, read-out: Galium plant response rating (0 to 100 scale); for pest or weed control at 125 g/ha: 125 g ai/ha, visual rating about 10 d after treatment; for pest or weed control at 31 g/ha: 31 g ai/ha, 0 is no effect, 100 is complete control
Procedure, shortened: as §1

Kochia (Kochia scoparia) [8] = assay: Test A postemergence; settings: Bassia scoparia, post-emergence, 240 h, Postemergence, read-out: Kochia plant response rating (0 to 100 scale); for pest or weed control at 125 g/ha: 125 g ai/ha, visual rating about 10 d after treatment; for pest or weed control at 31 g/ha: 31 g ai/ha, 0 is no effect, 100 is complete control
Procedure, shortened: as §1

[9] = system: barnyardgrass (Echinochloa crus-galli); assay: Test A postemergence; settings: Echinochloa crus-galli, post-emergence, 240 h, Postemergence; for pest or weed control at 125 g/ha: 125 g ai/ha, visual rating about 10 d after treatment, read-out: Barnyardgrass plant response rating (0 to 100 scale, 0 no effect, 100 complete control); for pest or weed control at 31 g/ha: 31 g ai/ha, 0 is no effect, 100 is complete control, read-out: Barnyardgrass plant response rating (0 to 100 scale)
Procedure, shortened: as §1

[10] = system: blackgrass (Alopecurus myosuroides); assay: Test A postemergence; settings: Alopecurus myosuroides, post-emergence, 240 h, Postemergence, read-out: Blackgrass plant response rating (0 to 100 scale); for pest or weed control at 125 g/ha: 125 g ai/ha, visual rating about 10 d after treatment; for pest or weed control at 31 g/ha: 31 g ai/ha, 0 is no effect, 100 is complete control
Procedure, shortened: as §1

corn (Zea mays) = assay: Test A postemergence; settings: Zea mays, post-emergence, 240 h, Postemergence, read-out: Corn plant response rating (0 to 100 scale); for plant injury at 125 g/ha: 125 g ai/ha, visual rating about 10 d after treatment; for plant injury at 31 g/ha: 31 g ai/ha, 0 is no effect, 100 is complete control
Procedure, shortened: as §1

[11] = system: giant foxtail (Setaria faberii); assay: Test A postemergence; settings: Setaria faberi, post-emergence, 240 h, Postemergence, read-out: Foxtail, Giant plant response rating (0 to 100 scale); for pest or weed control at 125 g/ha: 125 g ai/ha, visual rating about 10 d after treatment; for pest or weed control at 31 g/ha: 31 g ai/ha, 0 is no effect, 100 is complete control
Procedure, shortened: as §1

[12] = system: pigweed (Amaranthus retroflexus); assay: Test A postemergence; settings: Amaranthus retroflexus, post-emergence, 240 h, Postemergence, read-out: Pigweed plant response rating (0 to 100 scale); for pest or weed control at 125 g/ha: 125 g ai/ha, visual rating about 10 d after treatment; for pest or weed control at 31 g/ha: 31 g ai/ha, 0 is no effect, 100 is complete control
Procedure, shortened: as §1

[13] = system: ragweed (common ragweed, Ambrosia elatior); assay: Test A postemergence; settings: Ambrosia artemisiifolia, post-emergence, 240 h, Postemergence, read-out: Ragweed plant response rating (0 to 100 scale); for pest or weed control at 125 g/ha: 125 g ai/ha, visual rating about 10 d after treatment; for pest or weed control at 31 g/ha: 31 g ai/ha, 0 is no effect, 100 is complete control
Procedure, shortened: as §1

[14] = system: ryegrass, Italian (Italian ryegrass, Lolium multiflorum); assay: Test A postemergence; settings: Lolium multiflorum, post-emergence, 240 h, Postemergence, read-out: Ryegrass, Italian plant response rating (0 to 100 scale); for pest or weed control at 125 g/ha: 125 g ai/ha, visual rating about 10 d after treatment; for pest or weed control at 31 g/ha: 31 g ai/ha, 0 is no effect, 100 is complete control
Procedure, shortened: as §1

[15] = system: wheat (Triticum aestivum); assay: Test A postemergence; settings: Triticum aestivum, post-emergence, 240 h, Postemergence, read-out: Wheat plant response rating (0 to 100 scale); for plant injury at 125 g/ha: 125 g ai/ha, visual rating about 10 d after treatment; for plant injury at 31 g/ha: 31 g ai/ha, 0 is no effect, 100 is complete control
Procedure, shortened: as §1

[16] = system: barnyardgrass (Echinochloa crus-galli); assay: Test B flooded paddy test; settings: Echinochloa crus-galli, 250 g ai/ha, Flood; 0 to 100 scale where 0 is no effect and 100 is complete control; read-out: Barnyardgrass plant response rating
Procedure, shortened: (§2)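 Percent control, visually estimated after 13–15 d in the greenhouse on a 0–100 basis, compares treated pots with untreated ones; compound was put into paddy water 3 cm above the soil when plants had two leaves.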

[17] = system: ducksalad (Heteranthera limosa); assay: Test B flooded paddy test; settings: Heteranthera limosa, 250 g ai/ha, Flood; 0 to 100 scale where 0 is no effect and 100 is complete control; read-out: Ducksalad plant response rating
Procedure, shortened: as §2

rice (Oryra sativa) = assay: Test B flooded paddy test; settings: Oryza sativa, 250 g ai/ha, Flood; 0 to 100 scale where 0 is no effect and 100 is complete control; read-out: Rice plant response rating
Procedure, shortened: as §2

[18] = system: sedge, umbrella (small-flower umbrella sedge, Cyperus difformis); assay: Test B flooded paddy test; settings: Cyperus difformis, 250 g ai/ha, Flood; 0 to 100 scale where 0 is no effect and 100 is complete control; read-out: Sedge, Umbrella plant response rating
Procedure, shortened: as §2

Structure (SMILES)	pest or weed control at 31 g/ha (Kochia (Kochia scoparia) [1])	pest or weed control at 125 g/ha (Kochia (Kochia scoparia) [1])	pest or weed control at 31 g/ha [2]	pest or weed control at 125 g/ha [2]	pest or weed control at 31 g/ha [3]	pest or weed control at 125 g/ha [3]	pest or weed control at 31 g/ha [4]	pest or weed control at 125 g/ha [4]	pest or weed control at 31 g/ha [5]	pest or weed control at 125 g/ha [5]	pest or weed control at 31 g/ha [6]	pest or weed control at 125 g/ha [6]	pest or weed control at 125 g/ha [7]	pest or weed control at 31 g/ha [7]	pest or weed control at 125 g/ha (Kochia (Kochia scoparia) [8])	pest or weed control at 31 g/ha (Kochia (Kochia scoparia) [8])	pest or weed control at 125 g/ha [9]	pest or weed control at 31 g/ha [9]	pest or weed control at 125 g/ha [10]	pest or weed control at 31 g/ha [10]	other results
Cc1ccc([C@H]2CN(C)C(=O)[C@@H]2C(=O)Nc2c(F)c(F)c(F)c(F)c2F)cc1 [Compound 1292]	60%	60%	0%	50%	70%	80%	40%	40%	0%	0%	0%	40%	0%	0%	0%	0%	0%	0%	0%	0%	plant injury at 125 g/ha (corn (Zea mays)): 0%; plant injury at 31 g/ha (corn (Zea mays)): 0%; pest or weed control at 125 g/ha [11]: 0%; pest or weed control at 31 g/ha [11]: 0%; pest or weed control at 125 g/ha [12]: 0%; pest or weed control at 31 g/ha [12]: 0%; pest or weed control at 125 g/ha [13]: 0%; pest or weed control at 31 g/ha [13]: 0%; pest or weed control at 125 g/ha [14]: 0%; pest or weed control at 31 g/ha [14]: 0%; plant injury at 125 g/ha [15]: 0%; plant injury at 31 g/ha [15]: 0%; pest or weed control at 250 g/ha [16]: 0%; pest or weed control at 250 g/ha [17]: 0%; pest or weed control at 250 g/ha (rice (Oryra sativa)): 15%; pest or weed control at 250 g/ha [18]: 0%
O=C(Nc1ccccc1F)C1C(=O)N(CC(F)F)CC1c1cccc(C(F)(F)F)c1 (stereo not drawn) [Compound 1293]	0%	0%	0%	20%	0%	20%	0%	0%	0%	0%	0%	0%	0%	0%	0%	0%	20%	0%	0%	0%	plant injury at 125 g/ha (corn (Zea mays)): 0%; plant injury at 31 g/ha (corn (Zea mays)): 0%; pest or weed control at 125 g/ha [11]: 0%; pest or weed control at 31 g/ha [11]: 0%; pest or weed control at 125 g/ha [12]: 0%; pest or weed control at 31 g/ha [12]: 0%; pest or weed control at 125 g/ha [13]: 0%; pest or weed control at 31 g/ha [13]: 0%; pest or weed control at 125 g/ha [14]: 0%; pest or weed control at 31 g/ha [14]: 0%; plant injury at 125 g/ha [15]: 0%; plant injury at 31 g/ha [15]: 0%; pest or weed control at 250 g/ha [16]: 0%; pest or weed control at 250 g/ha [17]: 0%; pest or weed control at 250 g/ha (rice (Oryra sativa)): 0%; pest or weed control at 250 g/ha [18]: 0%
